Laboratory results from patent US20110218199A1, “PYRIDONEAMIDE DERIVATIVES, THEIR MANUFACTURE AND USE AS PHARMACEUTICAL AGENTS” (priority 2007, published 2011).
pIC50: −log10 of the molar value.

These compounds were tested on HCT 116 cells (assay: CellTiter-Glo assay in HCT 116 cells (antiproliferative activity)). Details: Homo sapiens, HCT-116, 120 h, CellTiter-Glo cell viability, HCT 116 human colon carcinoma, 5 days (120 h) incubation.
Assay type: cell-based
Text: Antiproliferative Activity:
CellTiter-Glo™ Assay in HCT 116 Cells:
The CellTiter-Glo™ Luminescent Cell Viability Assay (Promega) is a homogeneous method of determining the number of viable cells in culture based on quantitation of the ATP present, which signals the presence of metabolically active cells.
HCT 116 cells (human colon carcinoma, ATCC-No. CCl-247) were cultivated in RPMI 1640 medium with GlutaMAX• I (Invitrogen, Cat-No. 61870-010), 5% Fetal Calf Serum (FCS, Sigma Cat-No. F4135 (FBS)); 100 Units/ml penicillin/100 μg/ml streptomycin (=Pen/Strep from Invitrogen Cat. No. 15140). For the assay the cells were seeded in 384 well plates, 1000 cells per well, in the same medium. The next day the test compounds were added in various concentrations ranging from 30 μM to 0.0015 μM (10 concentrations, 1:3 diluted). After 5 days the CellTiter-Glo™ assay was done according to the instructions of the manufacturer (CellTiter-Glo™ Luminescent Cell Viability Assay, from Promega). In brief: the cell-plate was equilibrated to room temperature for approximately 30 minutes and than the CellTiter-Glo™ reagent was added. The contents were carefully mixed for 15 minutes to induce cell lysis. After 45 minutes the luminescent signal was measured in Victor 2, (scanning multiwell spectrophotometer, Wallac).
1st. Day: • Medium: RPMI 1640 with GlutaMAX™ I (Invitrogen, Cat-Nr. 61870), 5% FCS (Sigma Cat.-No. F4135), Pen/Strep (Invitrogen, Cat No. 15140). • HCT116 (ATCC-No. CC1-247): 1000 cells in 60 μl per well of 384 well plate (Greiner 781098, μClear-plate white) • After seeding incubate plates 24 h at 37° C., 5% CO2
2nd. Day: Induction (Treatment with Compounds, 10 Concentrations):
In order to achieve a final concentration of 30 μM as highest concentration 3.5 μl of 10 mM compound stock solution were added directly to 163 μl media. Then step e) of the dilution procedure described below, was followed.
In order to achieve the second highest to the lowest concentrations, a serial dilution with dilution steps of 1:3 was followed according to the procedure (a-e) as described here below: • a) for the second highest concentration add 10 μl of 10 mM stock solution of compound to 20 μl dimethylsulfoxide (DMSO) • b) dilute 8×1:3 (always 10 μl to 20 μl DMSO) in this DMSO dilution row (results in 9 wells with concentrations from 3333.3 μM to 0.51 μM) • c) dilute each concentration 1: 47.6 (3.5 μl compound dilution to 163 μl media) • d) add 10 μl of every concentration to 60 μl media in the cell plate resulting in final concentration of DMSO: 0.3% in every well and resulting in 10 final concentration of compounds ranging from 30 μM to 0.0015 μM. • Each compound is tested in triplicate. • Incubate 120 h (5 days) at 37° C., 5% CO2 […]
Add 30 μl CellTiter-Glo™ Reagent (prepared from CellTiter-Glo™ Buffer and CellTiter-Glo™ Substrate (lyophilized) purchased from Promega) per well, shake 15 minutes at room temperature incubate further 45 minutes at room temperature without shaking
Victor 2 scanning multiwell spectrophotometer (Wallac), Luminescence mode (0.5 sec/read, 477 nm) Determine IC50 using a non-linear curve fit (XLfit software (ID Business Solution Ltd., Guilford, Surrey, UK))

Row | Structure (SMILES) | pIC50
1 | O=C(Nc1ccc(N2CCCC2)c(C(F)(F)F)c1)c1c(NCc2ccccn2)cc[nH]c1=O [Example 2j, 2-Oxo-4-[(pyridin-2-ylmethyl)-amino]-1,2-dihydro-pyridine-3-carboxylic acid (4-pyrrolidin-1-yl-3-trifluoromethyl-phenyl)-amide] | 4.82 to 6.30
2 | CN1CCN(c2cccc(NC(=O)c3c(NCCc4ccccc4)cc[nH]c3=O)c2)CC1 [Example 4v, 2-Oxo-4-phenethylamino-1,2-dihydro-pyridine-3-carboxylic acid [3-(4-methyl-piperazin-1-yl)-phenyl]-amide] | 4.82 to 6.30
3 | COc1ccccc1CCNc1cc[nH]c(=O)c1C(=O)Nc1cccc(N2CCN(C)CC2)c1 [Example 4ab, 4-[2-(2-Methoxy-phenyl)-ethylamino]-2-oxo-1,2-dihydro-pyridine-3-carboxylic acid [3-(4-methyl-piperazin-1-yl)-phenyl]-amide] | 4.82 to 6.30
4 | CC(=O)N1CCN(c2ccc(NC(=O)c3c(NC[C@@H](O)c4cccc(Cl)c4)cc[nH]c3=O)cc2C(F)(F)F)CC1 [Example 4d, 4-[(S)-2-(3-Chloro-phenyl)-2-hydroxy-ethylamino]-2-oxo-1,2-dihydro-pyridine-3-carboxylic acid [4-(4-acetyl-piperazin-1-yl)-3-trifluoromethyl-phenyl]-amide] | 5.90
5 | CN1CCN(c2ccc(NC(=O)c3c(NC[C@@H](O)c4cccc(Cl)c4)cc[nH]c3=O)cc2)CC1 [Example 2p, 4-[(S)-2-(3-Chloro-phenyl)-2-hydroxy-ethylamino]-2-oxo-1,2-dihydro-pyridine-3-carboxylic acid [4-(4-methyl-piperazin-1-yl)-phenyl]-amide] | 4.82 to 6.30
6 | CN1CCN(c2ccc(NC(=O)c3c(NC[C@@H](O)c4ccccc4)cc[nH]c3=O)cc2F)CC1 [Example 4c, 4-[(S)-2-Hydroxy-2-phenyl-ethylamino]-2-oxo-1,2-dihydro-pyridine-3-carboxylic acid [3-fluoro-4-(4-methyl-piperazin-1-yl)-phenyl]-amide] | 4.82 to 6.30
7 | O=C(Nc1cccc(N2CCCC2)c1)c1c(NCCc2cccc(Cl)c2)cc[nH]c1=O [Example 2e, 4-[2-(3-Chloro-phenyl)-ethylamino]-2-oxo-1,2-dihydro-pyridine-3-carboxylic acid (3-pyrrolidin-1-yl-phenyl)-amide] | 4.82 to 6.30
8 | Cc1cccc(CCNc2cc[nH]c(=O)c2C(=O)Nc2cccc(N3CCN(C)CC3)c2)c1 [Example 4aa, 2-Oxo-4-(2-m-tolyl-ethylamino)-1,2-dihydro-pyridine-3-carboxylic acid [3-(4-methyl-piperazin-1-yl)-phenyl]-amide] | 4.82 to 6.30

Results, then the compound that gave them:

Row | pIC50 | Structure (SMILES)
9 | 4.82 to 6.30 | O=C(Nc1cccc(CN2CCCC2)c1)c1c(NCCc2ccccc2)cc[nH]c1=O [Example 6w, 2-Oxo-4-phenethylamino-1,2-dihydro-pyridine-3-carboxylic acid (3-pyrrolidin-1-ylmethyl-phenyl)-amide]
10 | 4.82 to 6.30 | CC(CNc1cc[nH]c(=O)c1C(=O)Nc1ccc(N2CCN(C)CC2)cc1)c1ccccc1 (stereo not shown) [Example 6ae, 2-Oxo-4-(2-phenyl-propylamino)-1,2-dihydro-pyridine-3-carboxylic acid [4-(4-methyl-piperazin-1-yl)-phenyl]-amide]
11 | 4.82 to 6.30 | O=C(Nc1ccc(N2CCOCC2)cc1)c1c(NCc2ccccn2)cc[nH]c1=O [Example 6r, 2-Oxo-4-[(pyridin-2-ylmethyl)-amino]-1,2-dihydro-pyridine-3-carboxylic acid (4-morpholin-4-yl-phenyl)-amide]
12 | 4.82 to 6.30 | COc1ccc(NC(=O)c2c(NCCc3ccccc3)cc[nH]c2=O)cc1N1CCN(C)CC1 [Example 6i, 2-Oxo-4-phenethylamino-1,2-dihydro-pyridine-3-carboxylic acid [4-methoxy-3-(4-methyl-piperazin-1-yl)-phenyl]-amide]
13 | 4.82 to 6.30 | CC(CNc1cc[nH]c(=O)c1C(=O)Nc1cccc(N2CCOCC2)c1)c1ccccc1 (stereo not shown) [Example 6g, 2-Oxo-4-(2-phenyl-propylamino)-1,2-dihydro-pyridine-3-carboxylic acid (3-morpholin-4-yl-phenyl)-amide]
